From patent US12285397B2, “Use of (s)-3-amino-4-(difluoromethylenyl) cyclopent-1-ene-1-carboxylic acid and related compounds, (1S,3S)-3-amino-4-(difluoromethylidene) cyclopentane-1-carboxylic acid and vigabatrin in the treatment of developmental disorders” (Ovid Therapeutics Inc., priority 2018, dated 2025) come the findings set out here.

Each structure is given as a SMILES string.

Assay [1] deals with Fmr1 KO2 mice. Put plainly: Open field repetitive behavior: stereotypy count, Fmr1 KO2 mice. In kind it is in vivo, mouse. The source says: (§1) Mutant fmr1 knockout (KO) mice recapitulate the Fragile X syndrome (FXS) phenotype and represent a preclinical model for assessment of putative drug treatments. In this study three different mice models of FXS were used: Fmr1 KO1 is the original Fmr1 knockout animal that carries an insertion in exon 5. See, e.g., Bakker C E, et al., The Dutch-Belgian Fragile X Consortium, Fmr1 knockout mice: A model to study fragile X mental retardation. Cell. 1994; 78:23-33 It is a protein null, although Fmr1 mRNA is still present. It is backcrossed to the C57/B16 strain. Subsequently, these mice were bred into different background strains, such as the FVB inbred mouse strain. Fmr1 KO2 is a null allele at Fmr1 generated by deletion of the promoter and first exon of Fmr1. See, Mientjes, E J et al., The generation of a conditional Fmr1 knock out mouse model to study Fmrp function in vivo. Neurobiology of Disease (2006) 21(3): 549-555. It is both protein and mRNA null. Backcrossed to the C57/B16 strain. Genotyping was accomplished using TransnetXY Automated Genotyping (http://www.transnetyx.com/). TRANSNETYX, INC., 8110 Cordova Rd. Suite 119, Cordova, TN 38016, USA.
(§2) The mice were housed in plastic cages (35×30×12 cm), 5 in each and habituated to the animal facilities for at least a week before test. The room temperature (21±2° C.), relative humidity (55±5%), a 12-h light-dark cycle (lights on 7 a.m.-7 p.m.) and air exchange (16 times per h) were automatically controlled. The animals had free access to commercial food pellets and water. Testing was conducted during the light phase. Testing was conducted on Fmr1 knockout mice and their wild-type (WT) littermates. Ten mice per treatment group, 14 weeks of age, were used for behavioral experiments. Experiments were conducted in line with the requirements of the UK Animals (Scientific Procedures) Act, 1986.
(§3) Oral dosing was performed by using 1.5-in. curved, 20-gauge, stainless steel feeding needles with a 2.25-mm ball (Braintree Scientific, Braintree, MA). Each gavage treatment was given in 0.5% methyl cellulose (Methyl Cellulose M0512, Sigma-Aldrich, St Louis, MO) used as vehicle with or without treatment compounds. The same veterinarian, blinded to the treatment groups, performed the procedure, and documented animal reactions to oral gavage. Reactions considered to indicate stress were defined as excessive struggling during gavage or abnormal behavior after gavage (labored breathing, frozen stance, exaggerated jumping, shuddering, and hunched posture).
(§4) For experiments all mice were tested once in the same apparatus. Prior to testing, mice not in the study were placed in the apparatus for some minutes before the experiment. The apparatus was then cleaned with moist and dry tissues before testing each mouse. The aim was to create a low but constant background mouse odor for all experimental subjects. All experiments were conducted with the experimenters blind to genotype and drug treatment during all testing and data analysis. Separate investigators prepared and coded dosing solutions, allocated the mice to the study treatment groups, dosed the animals, and collected the behavioral data. Data were analyzed by one-way analysis of variance (ANOVA) followed by post-hoc comparisons where appropriate using Tukey's Multiple Comparison Test. Data are represented as the mean and standard error of the mean (SEM).
2. Open Field Repetitive Behaviors (stereotypies: anticlockwise circling (aka counter revolutions) (CCW) and self grooming). Fmr1 KO2 mice display the autism-like phenotypes of repetitive behaviors like CCW, self grooming and stereotypy that typically involves behaviors such as head bobbing.
C. […]

The subject of assay [2] is Fmr1 KO1 mice. Briefly: Open field hyperactivity (locomotor activity), Fmr1 KO1 mice. It counts as in vivo, mouse.
Excerpt: as §1, §2, §3, §4
1. […]

Take `N[C@H]1C=C(C(=O)O)CC1=C(F)F` [Compound, (S)-3-Amino-4-(difluoromethylenyl)cyclopent-1-ene-1-carboxylic acid]: the “Stereotypy count, WT-Veh vs. KO2-Compound: Significant?” value in assay [1] (0.01 mg/Kg PO QD seven days) is “Yes”; in assay [1] (0.05 mg/Kg PO QD seven days) it was “No”; in assay [1] (0.1 mg/Kg PO QD seven days), “No”. Also, the “Stereotypy count, WT-Veh vs. KO2-Compound: Summary” value in assay [1] (0.05 mg/Kg PO QD seven days) and in assay [1] (0.1 mg/Kg PO QD seven days) was “ns” each time. Also, the “Effect on stereotypy counts phenotype (FIG. 4)” value in assay [1] (0.05 and 0.1 mg/Kg) is listed as “reversed”. In addition, the “Open field (hyperactivity, total distance traveled), WT-Veh vs. KO1-Compound: Significant?” value in assay [2] (0.01 mg/Kg PO QD seven days) was “Yes”; in assay [2] (0.05 mg/Kg PO QD seven days), “Yes”; in assay [2] (0.1 mg/Kg PO QD seven days), “No”. Besides, the “Open field (hyperactivity, total distance traveled), WT-Veh vs. KO1-Compound: Summary” value in assay [2] (0.1 mg/Kg PO QD seven days) is reported as “ns”.
